In PMC13047053, “Crystal structure of human INPP5K with an allosteric inhibitor reveals the structural basis for species specific potency” (Scientific Reports, 2026):
“Also recorded” adds a separate entry of the source.

Target: T1, mouse INPP5K (Mus musculus, UniProt Q8C5L6)
T1 construct: mouse INPP5K (aa 1–468, UniProt ID: Q8C5L6); FLAG (N); made in house; host or cells: Expi293 cells (pcDNA3.4, transient)
T1 sequence (Q8C5L6 1-468): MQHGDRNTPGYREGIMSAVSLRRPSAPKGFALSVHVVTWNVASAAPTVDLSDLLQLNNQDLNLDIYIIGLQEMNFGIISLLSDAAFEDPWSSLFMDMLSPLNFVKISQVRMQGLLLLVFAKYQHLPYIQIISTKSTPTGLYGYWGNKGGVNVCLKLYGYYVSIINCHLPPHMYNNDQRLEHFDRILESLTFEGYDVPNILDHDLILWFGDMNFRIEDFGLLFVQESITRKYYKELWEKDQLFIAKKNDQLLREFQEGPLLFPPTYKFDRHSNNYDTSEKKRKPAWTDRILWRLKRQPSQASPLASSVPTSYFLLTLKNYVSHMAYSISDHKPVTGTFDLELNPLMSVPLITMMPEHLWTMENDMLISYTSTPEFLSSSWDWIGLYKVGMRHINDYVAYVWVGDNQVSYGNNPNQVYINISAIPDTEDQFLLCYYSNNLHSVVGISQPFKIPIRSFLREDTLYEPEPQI
Experiment: Inorganic phosphate detection assay for phosphatase inhibition
Type: biochemical

CC(C)c1sc(NC(=O)c2ccccc2)c(C(=O)O)c1-c1ccccc1 [CPD-1]
IC50 (inorganic phosphate detection assay, 20 µM diC8-PI(3,4,5)P3, 20 min): > 100 µM | inhibition of mouse INPP5K (in words) (result in words): no inhibition; also recorded: inactive
